{
  "source": "patent US20160271139A1",
  "about": "“METHOD FOR NON-TOXIC TREATMENT FOR DRUG WITHDRAWAL” (DEMERX, INC., priority 2013, published 2016)",
  "key": {"[1]": {"assay": "Plasma noribogaine glucuronide pharmacokinetics in healthy volunteers (Example 7)", "type": "in vivo", "conditions": "human plasma; for AUC0-216 / AUC0-∞ / Cmax / Tmax / t1/2: mean"}, "[2]": {"assay": "Human pharmacokinetic study, single oral dose, serum levels (Example 6)", "type": "in vivo", "conditions": "fasting healthy volunteers, single oral tablet 3, 10, 30 or 60 mg", "protocol": "In double blind studies, fasting healthy volunteers (6 per cohort) were treated once orally with a tablet of noribogaine HCl. In escalating cohorts, the volunteers received 3 mg, 10 mg, 30 mg or 60 mg noribogaine."}, "dogs": {"test_system": "dogs", "assay": "Fourteen day repeat dose toxicity in dogs", "type": "in vivo, dog", "protocol": "The objective of this study was to determine the toxicity profile of noribogaine HCl given following oral (gavage) administration to dogs for 14 days according to the following Table 3 below:\nNoribogaine HCl was administered to groups of 4 male and 4 female dogs by single oral gavage daily for 14 days at doses of 0, 0.5, 1.0 and 5.0 mg/kg/day. An additional group of 4 male and 4 female dogs received either the vehicle control or 5.0 mg/kg/day for 14 days and were held for an additional 28 days after cessation of dosing to assess recovery from any potential drug-induced changes. The study was conducted under GLP guidelines and included comprehensive examinations of clinical signs, body weight, clinical pathology parameters, ophthalmologic examinations. ECG recordings and analyses of plasma for bioanalytical measurement of drug levels at appropriate intervals during the study. At the termination of the dosing phase and at the termination of the recovery phase, all dogs were subjected to a complete post-mortem examination including gross examination of major organs and histologic examination of an extensive list of tissues. Additional sections of brain were obtained from cerebrum, cerebellus, brain stem and spinal cord and examined histologically to evaluate potential effects on brain histopathology. In addition, these sections were examined with immunohistochemical stains for GFAP for evidence of gliosis and Calbindin for a more comprehensive examination of cerebellar Purkinje cells."}, "Sprague-Dawley rats": {"test_system": "Sprague-Dawley rats", "assay": "Fourteen day repeat dose toxicity in rats", "type": "in vivo, rat", "protocol": "This study was conducted to evaluate the toxicity profile of noribogaine-HCl following oral (gavage) administration to the rat for 14 days following Table 2 below:\nMale and female Sprague-Dawley rats, 10/sex/group, were administered 0, 25, 50 or 100 mg/kg noribogaine HCl daily by single oral gavage for 14 days. An additional 5 rats/sex/group in the 0 (control) and 100 mg/kg groups were retained for a 28 day recovery period during which no drug was administered. Six rats/sex/group (3 rats/sex controls) were similarly dosed and sampled on study days 1 and 14 for analysis of noribogaine-HCl concentrations in the blood."}, "Sprague-Dawley rat": {"test_system": "Sprague-Dawley rat", "assay": "Single dose toxicity in rats", "type": "in vivo", "conditions": "male rats", "protocol": "The objective of this study was to determine the toxicity and toxicokinetic profile of noribogaine HCl following a single oral (gavage) administration in the Sprague-Dawley rat. A single dose of 100, 300 and 800 mg/kg (achieved with doses of 400 mg/kg 3 h+/−30 min apart because of the limitations of maximum dose formulation concentration). Five male rats/group were used. […] Hypoactivity, vocalization, chewing movements, changes in respiration/posture, salivation, stimuli sensitivity, tremors, twitches and penile erection occurred prior to death. […] The NOAEL was determined to be 100 mg/kg."}, "[3]": {"conditions": "after single oral 30 mg noribogaine (n = 6)"}, "[4]": {"conditions": "after single oral 60 mg noribogaine (n = 6)"}},
  "data": [
    {"smiles": "CC[C@H]1C[C@@H]2C[C@H]3c4[nH]c5ccc(OC6OC(C(=O)O)C(O)C(O)C6O)cc5c4CCN(C2)[C@@H]13", "note": "(some centres unmarked) [Noribogaine glucuronide, noribogaine glucuronide]", "values": [
      {"measurement": "Mean half-life", "setting": "[1]; 30 mg and 60 mg dose groups", "value": "21 to 23", "unit": "h"},
      {"measurement": "Time of peak concentrations after noribogaine dosing", "setting": "[1]; 30 mg and 60 mg dose groups", "value": "3 to 4", "unit": "h"},
      {"measurement": "Time by which detected in all subjects", "setting": "[1]; 30 mg and 60 mg noribogaine dose groups", "value": "≤ 0.75", "unit": "h"},
      {"measurement": "AUC0-216", "setting": "[1]; [3]", "value": 25.7, "unit": "ng·h/mL"},
      {"measurement": "AUC0-∞", "setting": "[1]; [3]", "value": 25.8, "unit": "ng·h/mL"},
      {"measurement": "Cmax", "setting": "[1]; [3]", "value": 1.8, "unit": "ng/mL"},
      {"measurement": "Tmax", "setting": "[1]; [3]", "value": 3.0, "unit": "h"},
      {"measurement": "t1/2", "setting": "[1]; [3]", "value": 20.6, "unit": "h"},
      {"measurement": "AUC0-216", "setting": "[1]; [4]", "value": 65.0, "unit": "ng·h/mL"},
      {"measurement": "AUC0-∞", "setting": "[1]; [4]", "value": 67.1, "unit": "ng·h/mL"},
      {"measurement": "Cmax", "setting": "[1]; [4]", "value": 4.1, "unit": "ng/mL"},
      {"measurement": "Tmax", "setting": "[1]; [4]", "value": 3.8, "unit": "h"},
      {"measurement": "t1/2", "setting": "[1]; [4]", "value": 23.1, "unit": "h"},
      {"measurement": "Proportion of noribogaine glucuronide Cmax and AUC relative to noribogaine", "setting": "[1]; both dose groups (30 mg, 60 mg)", "value": "3-4%"}
    ]},
    {"smiles": "CC[C@@H]1C[C@H]2CC3c4[nH]c5ccc(O)cc5c4CCN(C2)C31.Cl", "note": "[noribogaine HCl]", "values": [
      {"measurement": "Adverse effects", "setting": "[2]", "value": "no clinically relevant adverse effects were observed"},
      {"measurement": "Linearity of pharmacokinetic parameters", "setting": "[2]", "value": "All parameters were linear"},
      {"measurement": "Lacrimal gland change in recovery group", "setting": "dogs; dogs, 5 mg/kg/day 14 days, then 28 days off drug", "value": "clear evidence of regeneration"},
      {"measurement": "Lacrimal gland changes (only target tissue)", "setting": "dogs; dogs, 5 mg/kg/day, 14 days", "value": "slight to moderate atrophy and degeneration of the acinar cells"},
      {"measurement": "Adverse effect in clinical observations, body weights, clinical pathological parameters, ophthalmologic examinations, ECG recordings, or gross lesions at necropsy", "setting": "dogs; dogs, 0.5, 1.0 and 5.0 mg/kg/day oral gavage 14 days, dosing or recovery phase", "value": "No evidence of adverse effect"},
      {"measurement": "Drug-induced effect in any other tissue including brain (histopathology, immunohistochemistry)", "setting": "dogs; dogs, 14 days oral gavage", "value": "No evidence of drug-induced effect"},
      {"measurement": "NOAEL", "setting": "dogs; dogs, 14 days oral gavage, based on lacrimal gland changes at 5 mg/kg/day", "value": 1, "unit": "mg/kg/day"},
      {"measurement": "Effects on mortality, clinical signs, ophthalmoscopy, hematology, coagulation parameters, clinical chemistry, urinalysis, gross necropsy or histopathology", "setting": "Sprague-Dawley rats; rats, 25, 50 or 100 mg/kg daily oral gavage for 14 days", "value": "no test article-related effects"},
      {"measurement": "Brain sections stained for GFAP or Calbindin", "setting": "Sprague-Dawley rats; rats, 14 days oral gavage", "value": "No treatment-related differences in the brain"},
      {"measurement": "NOAEL", "setting": "Sprague-Dawley rats; rats, 14 days oral gavage, highest dose tested", "value": 100, "unit": "mg/kg"},
      {"measurement": "Body weight change", "setting": "Sprague-Dawley rats; rats, females, high dose 100 mg/kg, 14 days", "value": "−2.6", "unit": "%"},
      {"measurement": "Food consumption change", "setting": "Sprague-Dawley rats; rats, males and females, high dose 100 mg/kg, 14 days", "value": "−4.7", "unit": "%"},
      {"measurement": "Body weight change", "setting": "Sprague-Dawley rats; rats, males, high dose 100 mg/kg, 14 days", "value": "−5.5", "unit": "%"},
      {"measurement": "Liver weight", "setting": "Sprague-Dawley rats; rats, mid- and high dose groups (50, 100 mg/kg), 14 days, not correlated with histopathologic changes, considered incidental", "value": "Minor increases in liver weight"},
      {"measurement": "NOAEL", "setting": "Sprague-Dawley rat; single oral gavage", "value": 100, "unit": "mg/kg"},
      {"measurement": "Treatment related signs", "setting": "Sprague-Dawley rat; single oral gavage 100 mg/kg", "value": "did not show any treatment related signs"},
      {"measurement": "Rats with hypoactivity, vocalization, salivation, stimuli sensitivity, loss of limb function and lying on the cage floor persisting until Day 2", "setting": "Sprague-Dawley rat; single oral gavage 300 mg/kg", "value": "3/5"},
      {"measurement": "Mortality", "setting": "Sprague-Dawley rat; single oral gavage 800 mg/kg (2 x 400 mg/kg 3 h apart), approximately 2-3 h after second dose", "value": "Mortality occurred in all male rats"}
    ]}
  ]
}
